# In patent US12251382B2, “Substituted amino-pyrimidine compound for use in a method for treatment and prevention of multiple sclerosis” (Merck Patent GmbH, priority 2018, dated 2025):
# Test system: human patients suffering from relapsing multiple sclerosis (RMS)
# Experiment: Phase II RMS study: brain MRI (Gd+ T1 lesions, T2 lesions)
# Assay type: in vivo
# Parameters: key to Gd+ T1 lesion rate (subject level), Median / Gd+ T1 Lesion rate, adjusted (negative binomial model): number of Gd+ T1 lesions per scan
# Conditions: for New or enlarging T2 lesion rate (subject level), Mean ± SD: Weeks 12-24; for Difference in LS means of CFB in cube root of volume of T2 lesions vs placebo: week 24, MMRM
# Description: The assessing Investigator and central MRI reader were treatment blinded.
# The protocol specified that subjects self-administered the IMP at a set time each day (every 12 hours ±2 hours). Subjects were to take their daily dose more than 1 hour prior to a meal or snack and more than 2 hours after a meal or snack. Clear fluids were allowed at any time. On trial visit days, the IMP was to be administered during the trial visit after the scheduled trial visit procedures (other than post-treatment PK/PD sampling) are completed.
# Stratification occurred by region (USA or Western Europe, Eastern Europe and BTKO capable, Eastern Europe and not BTKO capable, and RoW). For the first 7 days, Tecfidera was administered orally at 120 mg twice daily. Following this and for the duration of treatment, Tecfidera was administered orally at 240 mg twice daily.
# The protocol specified that MRI scans were to be performed at Screening, at 4-week intervals from Week 12 to 24, and at the End of Treatment Visit at Week 48 (including for subjects receiving Tecfidera who choose to enter the OLE Period). […] If a subject discontinued the study more than 4 weeks after his or her most recent MRI, the protocol specified that an MRI may be obtained at the 4-week Safety Follow-up Visit. The Screening MRI scan was to be acquired before randomization and dosing to allow for the readouts to be read by the central MRI reader (approximately 7 days).
# Gadolinium was used to enhance T1-weighted lesions and to optimize clarity and accuracy of reporting. As gadolinium is excreted renally, subjects with acute renal insufficiency (eGFR <45 mL/min/1.73 m^2) will be excluded from the trial.
# The protocol specified that brain MRI scans were performed according to a standardized imaging protocol before and after the administration of single-dose gadolinium. Images were assessed and reported by an independent, blinded, centralized MRI reading service, provided by NeuroRx Research. The assessment was performed in the absence of clinical information. Further details, including the scans required and the optimal MRI workflow, were provided in a separate Imaging Manual provided to each trial site by NeuroRx Research. All MRI images were reviewed and reported locally by a radiologist for safety. The local report was to contain only non-MS pathology and was to be provided to the Treating Investigator.
# The primary endpoint was the total number of gadolinium-enhancing T1 lesions at Week 12, 16, 20, and 24. The primary analysis was a comparison of each evobrutinib dose arm versus placebo based on this endpoint, with a supportive test for dose-response. Secondary Endpoints
# Other covariates were permitted to be considered. […] Descriptive statistics for the total number of Gd+ T1 lesions, at Week 12, 16, 20, and 24, are provided for each treatment group.
# Estimation of mean per-scan number of Gd+ T1 lesions at Weeks 12, 16, 20, and 24, for each treatment group, was based on the NB model. In the analysis of each secondary endpoint, other covariates were permitted to be included in the model.
# Primary and secondary efficacy endpoints were analysed based on the modified intention-to-treat (mITT) analysis set, consisting of all randomized patients with at least one available baseline and one post-baseline MRI assessment. […] For each endpoint, rate ratio (RR; null-hypothesis RR=1.0) adjusted for baseline disease activity was reported together with associated 95% CI and p-value. The T2 lesion endpoint was analysed similarly. Dose-response relationships between evobrutinib treatment dose and primary and key secondary endpoints were assessed for linear and monotonic trend. The analysis of CFB in cube root of volume of T2 lesions at Week 24 was based on a mixed-effect model for repeated measures, with fixed effects for treatment, week of visit, and treatment-by-week interaction, random effect for subject, and adjustment for baseline cube root of lesion volume. CFB in SF-36 score at Week 24 was analysed similarly. […]
# [1] = 25 mg QD, listed as evobrutinib
# [2] = 75 mg BID, listed as evobrutinib
structure (smiles),measurement,setting,value
"C=CC(=O)N1CCC(CNc2ncnc(N)c2-c2ccc(Oc3ccccc3)cc2)CC1 [Evobrutinib, 1-(4-(((6-amino-5-(4-phenoxyphenyl)pyrimidin-4-yl)amino)methyl)piperidin-1-yl)prop-2-en-1-one]","Change in volume of T2 lesions from baseline to week 24, Mean ± SD",25 mg QD,0.93 ± 1.85 cc
same,"Change in volume of T2 lesions from baseline to week 24, Median",25 mg QD,0.05 cc
same,"Gd+ T1 Lesion rate, adjusted (negative binomial model)",25 mg QD,1.09
same,"Gd+ T1 lesion rate (subject level), Median",25 mg QD,0.25
same,"Gd+ T1 lesion rate (subject level; count per scan, weeks 12-24), Mean ± SD",25 mg QD,1.31 ± 3.13
same,"Total Number of New or Enlarging T2 Lesions at Week 24, Mean ± SD",25 mg QD,6.52 ± 11.57
same,"Total number of Gd+ T1 lesions at Weeks 12, 16, 20, 24, Mean ± SD",25 mg QD,5.23 ± 12.52
same,"Total number of Gd+ T1 lesions at Weeks 12, 16, 20, 24, Median (min-max)",25 mg QD,1 (0-76)
same,"New or enlarging T2 lesion rate (subject level), Mean ± SD",25 mg QD,2.08 ± 4.19
same,Difference in LS means of CFB in cube root of volume of T2 lesions vs placebo,25 mg QD,0.05 cm
same,"Change in volume of T2 lesions from baseline to week 24, Median",[1],increased
same,"Gd+ T1 lesion rate (subject level; count per scan, weeks 12-24), Mean ± SD",[1],1.31±3.13
same,"Change in volume of T2 lesions from baseline to week 24, Mean ± SD",75 mg BID,0.06 ± 0.50 cc
same,"Change in volume of T2 lesions from baseline to week 24, Median",75 mg BID,−0.02 cc
same,"Gd+ T1 Lesion rate, adjusted (negative binomial model)",75 mg BID,0.34
same,"Gd+ T1 lesion rate (subject level), Median",75 mg BID,0.0
same,"Gd+ T1 lesion rate (subject level; count per scan, weeks 12-24), Mean ± SD",75 mg BID,0.35 ± 0.96
same,"Total Number of New or Enlarging T2 Lesions at Week 24, Mean ± SD",75 mg BID,2.26 ± 4.72
same,"Total number of Gd+ T1 lesions at Weeks 12, 16, 20, 24, Mean ± SD",75 mg BID,1.39 ± 3.85
same,"Total number of Gd+ T1 lesions at Weeks 12, 16, 20, 24, Median (min-max)",75 mg BID,0 (0-25)
same,"New or enlarging T2 lesion rate (subject level), Mean ± SD",75 mg BID,0.73 ± 1.57
same,"New or enlarging T2 lesion rate (subject level), Mean ± SD",[2],0.73±1.57
same,Difference in LS means of CFB in cube root of volume of T2 lesions vs placebo,75 mg BID,−0.35 cm
same,"Gd+ T1 lesion rate (subject level; count per scan, weeks 12-24), Mean ± SD",[2],0.35±0.96
same,"Change in volume of T2 lesions from baseline to week 24, Mean ± SD",75 mg QD,0.01 ± 0.57 cc
same,"Change in volume of T2 lesions from baseline to week 24, Median",75 mg QD,−0.01 cc
same,"Gd+ T1 Lesion rate, adjusted (negative binomial model)",75 mg QD,0.27
same,"Gd+ T1 lesion rate (subject level), Median",75 mg QD,0.0
same,"Gd+ T1 lesion rate (subject level; count per scan, weeks 12-24), Mean ± SD",75 mg QD,0.42 ± 1.17
same,"Total Number of New or Enlarging T2 Lesions at Week 24, Mean ± SD",75 mg QD,3.57 ± 10.82
same,"Total number of Gd+ T1 lesions at Weeks 12, 16, 20, 24, Mean ± SD",75 mg QD,1.69 ± 4.69
same,"Total number of Gd+ T1 lesions at Weeks 12, 16, 20, 24, Median (min-max)",75 mg QD,0 (0-27)
same,Total number of Gd+ T1 lesions versus placebo,"75 mg QD and 75 mg BID, Weeks 12, 16, 20 and 24",significantly reduced Gd+ T1 lesions versus placebo
same,"New or enlarging T2 lesion rate (subject level), Mean ± SD",75 mg QD,0.89 ± 2.71
same,Difference in LS means of CFB in cube root of volume of T2 lesions vs placebo,75 mg QD,−0.35 cm
same,"Gd+ T1 lesion rate (subject level; count per scan, weeks 12-24), Mean ± SD","75 mg QD, listed as evobrutinib",0.42±1.17
same,Total Gd+ T1 lesions over 4 scans in an outlier patient,"one patient, 25 mg QD",76
same,Dose response of Gd+ T1 lesion count,"weeks 12-24, p<0.01",significant dose response was observed
